# Measured values from ChEMBL document CHEMBL1129930, “Analogues of methotrexate in rheumatoid arthritis. 2. Effects of 5-deazaaminopterin, 5,10-dideazaaminopterin, and analogues on type II collagen-induced arthritis in mice” (J Med Chem, 1997).
# Assays:
# Mus musculus [1] = experiment: Tested for antiinflammatory activity on mouse type II collagen arthritis as Paw swelling of all animals in each group on day 30 at intraperitoneal dose of 6 mg/kg; format: functional
# Mus musculus [2] = experiment: Tested for antiinflammatory activity on mouse type II collagen arthritis as Paw swelling of all animals in each group on day 30 at intraperitoneal dose of 18 mg/kg; format: functional
# Mus musculus [3] = experiment: Tested for antiinflammatory activity on mouse type II collagen arthritis as Paw swelling of all animals in each group on day 30 at intraperitoneal dose of 12 mg/kg; format: functional
# Mus musculus [4] = experiment: Incidence of disease (mouse type II collagen) was scored as the percentage of animals within each experimental group that exhibited joint or limb inflammation on day 44 at intraperitoneal dose of 18 mg/kg; format: functional
# Mus musculus [5] = experiment: Tested for antiinflammatory activity on mouse type II collagen arthritis as Paw swelling of all animals in each group on day 37 at intraperitoneal dose of 12 mg/kg; format: functional
# Mus musculus [6] = experiment: Incidence of disease (mouse type II collagen) was scored as the percentage of animals within each experimental group that exhibited joint or limb inflammation on day 37 at intraperitoneal dose of 12 mg/kg; format: functional
# Mus musculus [7] = experiment: Tested for antiinflammatory activity on mouse type II collagen arthritis as Paw swelling of all animals in each group on day 23 at intraperitoneal dose of 6 mg/kg; format: functional
# Mus musculus [8] = experiment: Incidence of disease (mouse type II collagen) was scored as the percentage of animals within each experimental group that exhibited joint or limb inflammation on day 37 at intraperitoneal dose of 18 mg/kg; format: functional
# Mus musculus [9] = experiment: Tested for antiinflammatory activity on mouse type II collagen arthritis as Paw swelling of all animals in each group on day 44 at intraperitoneal dose of 6 mg/kg; format: functional
# Mus musculus [10] = experiment: Tested for antiinflammatory activity on mouse type II collagen arthritis as Paw swelling of all animals in each group on day 23 at intraperitoneal dose of 18 mg/kg; format: functional
# Mus musculus [11] = experiment: Incidence of disease (mouse type II collagen) was scored as the percentage of animals within each experimental group that exhibited joint or limb inflammation on day 30 at intraperitoneal dose of 6 mg/kg; format: functional
# Mus musculus [12] = experiment: Incidence of disease (mouse type II collagen) was scored as the percentage of animals within each experimental group that exhibited joint or limb inflammation on day 23 at intraperitoneal dose of 18 mg/kg; format: functional
# Mus musculus [13] = experiment: Tested for antiinflammatory activity on mouse type II collagen arthritis as Paw swelling of all animals in each group on day 23 at intraperitoneal dose of 12 mg/kg; format: functional
# [14] = Concentration required to inhibit the growth of chang liver cells.; format: functional; settings: Homo sapiens
# Mus musculus [15] = experiment: Tested for antiinflammatory activity on mouse type II collagen arthritis as Paw swelling of all animals in each group on day 37 at intraperitoneal dose of 18 mg/kg; format: functional
# Mus musculus [16] = experiment: Incidence of disease (mouse type II collagen) was scored as the percentage of animals within each experimental group that exhibited joint or limb inflammation on day 37 at intraperitoneal dose of 6 mg/kg; format: functional
# Mus musculus [17] = experiment: Incidence of disease (mouse type II collagen) was scored as the percentage of animals within each experimental group that exhibited joint or limb inflammation on day 44 at intraperitoneal dose of 12 mg/kg; format: functional
# L1210 = experiment: Concentration required to inhibit the growth of L1210 cells.; format: functional, cell-based; settings: Mus musculus
# Mus musculus [18] = experiment: Tested for antiinflammatory activity on mouse type II collagen arthritis as Paw swelling of all animals in each group on day 37 at intraperitoneal dose of 6 mg/kg; format: functional
# Mus musculus [19] = experiment: Incidence of disease (mouse type II collagen) was scored as the percentage of animals within each experimental group that exhibited joint or limb inflammation on day 23 at intraperitoneal dose of 12 mg/kg; format: functional
# Mus musculus [20] = experiment: Tested for antiinflammatory activity on mouse type II collagen arthritis as Paw swelling of all animals in each group on day 44 at intraperitoneal dose of 18 mg/kg; format: functional
# Mus musculus [21] = experiment: Incidence of disease (mouse type II collagen) was scored as the percentage of animals within each experimental group that exhibited joint or limb inflammation on day 44 at intraperitoneal dose of 6 mg/kg; format: functional
# Mus musculus [22] = experiment: Incidence of disease (mouse type II collagen) was scored as the percentage of animals within each experimental group that exhibited joint or limb inflammation on day 30 at intraperitoneal dose of 12 mg/kg; format: functional
# Mus musculus [23] = experiment: Tested for antiinflammatory activity on mouse type II collagen arthritis as Paw swelling of all animals in each group on day 44 at intraperitoneal dose of 12 mg/kg; format: functional
# Mus musculus [24] = experiment: Incidence of disease (mouse type II collagen) was scored as the percentage of animals within each experimental group that exhibited joint or limb inflammation on day 30 at intraperitoneal dose of 18 mg/kg; format: functional
# Mus musculus [25] = experiment: Incidence of disease (mouse type II collagen) was scored as the percentage of animals within each experimental group that exhibited joint or limb inflammation on day 23 at intraperitoneal dose of 6 mg/kg; format: functional
# Mus musculus [26] = experiment: Tested for antiinflammatory activity on mouse type II collagen arthritis as Paw swelling of all animals in each group on day 44 at intraperitoneal dose of 0.25 mg/kg; format: functional
# Mus musculus [27] = experiment: Incidence of disease (mouse type II collagen) was scored as the percentage of animals within each experimental group that exhibited joint or limb inflammation on day 23 at intraperitoneal dose of 0.50 mg/kg (deaths observed at 1.5 mg/kg); format: functional
# Mus musculus [28] = experiment: Tested for antiinflammatory activity on mouse type II collagen arthritis as Paw swelling of all animals in each group on day 30 at intraperitoneal dose of 1 mg/kg; format: functional
# Mus musculus [29] = experiment: Incidence of disease (mouse type II collagen) was scored as the percentage of animals within each experimental group that exhibited joint or limb inflammation on day 23 at intraperitoneal dose of 0.25 mg/kg (deaths observed at 1.5 mg/kg); format: functional
# Mus musculus [30] = experiment: Tested for antiinflammatory activity on mouse type II collagen arthritis as Paw swelling of all animals in each group on day 30 at intraperitoneal dose of 0.25 mg/kg; format: functional
# Mus musculus [31] = experiment: Tested for antiinflammatory activity on mouse type II collagen arthritis as Paw swelling of all animals in each group on day 37 at intraperitoneal dose of 0.50 mg/kg; format: functional; settings: dose 0.5 mg/kg
# Mus musculus [32] = experiment: Tested for antiinflammatory activity on mouse type II collagen arthritis as Paw swelling of all animals in each group on day 44 at intraperitoneal dose of 1 mg/kg; format: functional
# Mus musculus [33] = experiment: Incidence of disease (mouse type II collagen) was scored as the percentage of animals within each experimental group that exhibited joint or limb inflammation on day 44 at intraperitoneal dose of 0.50 mg/kg (deaths observed at 1.5 mg/kg); format: functional
# Mus musculus [34] = experiment: Incidence of disease (mouse type II collagen) was scored as the percentage of animals within each experimental group that exhibited joint or limb inflammation on day 23 at intraperitoneal dose of 1 mg/kg (deaths observed at 1.5 mg/kg); format: functional
# Mus musculus [35] = experiment: Incidence of disease (mouse type II collagen) was scored as the percentage of animals within each experimental group that exhibited joint or limb inflammation on day 30 at intraperitoneal dose of 0.25 mg/kg (deaths observed at 1.5 mg/kg); format: functional
# Mus musculus [36] = experiment: Tested for antiinflammatory activity on mouse type II collagen arthritis as Paw swelling of all animals in each group on day 37 at intraperitoneal dose of 1 mg/kg; format: functional
# Mus musculus [37] = experiment: Tested for antiinflammatory activity on mouse type II collagen arthritis as Paw swelling of all animals in each group on day 23 at intraperitoneal dose of 0.50 mg/kg; format: functional; settings: dose 0.5 mg/kg
# Mus musculus [38] = experiment: Tested for antiinflammatory activity on mouse type II collagen arthritis as Paw swelling of all animals in each group on day 30 at intraperitoneal dose of 0.50 mg/kg; format: functional; settings: dose 0.5 mg/kg
# Mus musculus [39] = experiment: Tested for antiinflammatory activity on mouse type II collagen arthritis as Paw swelling of all animals in each group on day 37 at intraperitoneal dose of 0.25 mg/kg; format: functional
# Mus musculus [40] = experiment: Incidence of disease (mouse type II collagen) was scored as the percentage of animals within each experimental group that exhibited joint or limb inflammation on day 37 at intraperitoneal dose of 0.50 mg/kg (deaths observed at 1.5 mg/kg); format: functional
# Mus musculus [41] = experiment: Tested for antiinflammatory activity on mouse type II collagen arthritis as Paw swelling of all animals in each group on day 44 at intraperitoneal dose of 0.50 mg/kg; format: functional; settings: dose 0.5 mg/kg
# Mus musculus [42] = experiment: Tested for antiinflammatory activity on mouse type II collagen arthritis as Paw swelling of all animals in each group on day 23 at intraperitoneal dose of 0.25 mg/kg; format: functional
# Mus musculus [43] = experiment: Incidence of disease (mouse type II collagen) was scored as the percentage of animals within each experimental group that exhibited joint or limb inflammation on day 30 at intraperitoneal dose of 1 mg/kg (deaths observed at 1.5 mg/kg); format: functional
# Mus musculus [44] = experiment: Incidence of disease (mouse type II collagen) was scored as the percentage of animals within each experimental group that exhibited joint or limb inflammation on day 37 at intraperitoneal dose of 0.25 mg/kg (deaths observed at 1.5 mg/kg); format: functional
# Mus musculus [45] = experiment: Incidence of disease (mouse type II collagen) was scored as the percentage of animals within each experimental group that exhibited joint or limb inflammation on day 44 at intraperitoneal dose of 1 mg/kg (deaths observed at 1.5 mg/kg); format: functional
# Mus musculus [46] = experiment: Incidence of disease (mouse type II collagen) was scored as the percentage of animals within each experimental group that exhibited joint or limb inflammation on day 30 at intraperitoneal dose of 0.50 mg/kg (deaths observed at 1.5 mg/kg); format: functional
# Mus musculus [47] = experiment: Incidence of disease (mouse type II collagen) was scored as the percentage of animals within each experimental group that exhibited joint or limb inflammation on day 37 at intraperitoneal dose of 1 mg/kg (deaths observed at 1.5 mg/kg); format: functional
# Mus musculus [48] = experiment: Incidence of disease (mouse type II collagen) was scored as the percentage of animals within each experimental group that exhibited joint or limb inflammation on day 44 at intraperitoneal dose of 0.25 mg/kg (deaths observed at 1.5 mg/kg); format: functional
compound,measurement,setting,value
Nc1nc(N)c2cc(CCc3ccc(C(=O)NC(CCC(=O)O)C(=O)O)cc3)cnc2n1 (stereo unspecified),Paw swelling,Mus musculus [1],2.28 mm
same,Paw swelling,Mus musculus [2],2.16 mm
same,Paw swelling,Mus musculus [3],2.24 mm
same,Animals,Mus musculus [4],0%
same,Paw swelling,Mus musculus [5],2.24 mm
same,Animals,Mus musculus [6],12%
same,Paw swelling,Mus musculus [7],2.17 mm
same,Animals,Mus musculus [8],0%
same,Paw swelling,Mus musculus [9],2.29 mm
same,Paw swelling,Mus musculus [10],2.15 mm
same,Animals,Mus musculus [11],25%
same,Animals,Mus musculus [12],12%
same,Paw swelling,Mus musculus [13],2.12 mm
same,IC50,[14],37 nM
same,Paw swelling,Mus musculus [15],2.15 mm
same,Animals,Mus musculus [16],25%
same,Animals,Mus musculus [17],25%
same,IC50,L1210,27 nM
same,Paw swelling,Mus musculus [18],2.26 mm
same,Animals,Mus musculus [19],0%
same,Paw swelling,Mus musculus [20],2.2 mm
same,Animals,Mus musculus [21],38%
same,Animals,Mus musculus [22],12%
same,Paw swelling,Mus musculus [23],2.28 mm
same,Animals,Mus musculus [24],0%
same,Animals,Mus musculus [25],12%
CCc1c(CNc2ccc(C(=O)NC(CCC(=O)O)C(=O)O)cc2)cnc2nc(N)nc(N)c12 (stereo unspecified),Paw swelling,Mus musculus [26],2.33 mm
same,Animals,Mus musculus [27],43%
same,Paw swelling,Mus musculus [28],2.19 mm
same,Animals,Mus musculus [29],38%
same,Paw swelling,Mus musculus [30],2.22 mm
same,Paw swelling,Mus musculus [31],2.42 mm
same,Paw swelling,Mus musculus [32],2.29 mm
same,Animals,Mus musculus [33],71%
same,Animals,Mus musculus [34],12%
same,Animals,Mus musculus [35],0%
same,Paw swelling,Mus musculus [36],2.32 mm
same,Paw swelling,Mus musculus [37],2.31 mm
same,Paw swelling,Mus musculus [38],2.38 mm
same,Paw swelling,Mus musculus [39],2.34 mm
same,Animals,Mus musculus [40],86%
same,IC50,[14],126 nM
same,Paw swelling,Mus musculus [41],2.43 mm
same,IC50,L1210,1.9 nM
same,Paw swelling,Mus musculus [42],2.25 mm
same,Animals,Mus musculus [43],25%
same,Animals,Mus musculus [44],50%
same,Animals,Mus musculus [45],62%
same,Animals,Mus musculus [46],57%
same,Animals,Mus musculus [47],62%
same,Animals,Mus musculus [48],62%
